The text below walks through data of patent US20040087633A1, “Methylidene oxazolidinone compound and preparation method thereof” (Korea Institute of Science and Technology, priority 2002, published 2004).

Holding throughout (test): Anti-microbial activity test in vitro (agar dilution MIC)
A general note: In agar dilution the substance is mixed into plates at graded concentrations.

The subject of one test is S. pyogenes C6003. In kind it is cell-based. The settings on record: S. pyogenes C6003; Agar Dilution method, Mueller Hinton Agar, 18 hours at 37° C. Here is the method: (§1) Anti-microbial activity test in vitro
(§2) Strains were cultivated for 18 hours at 37° C. in Agar Dilution method using Mueller Hinton Agar, and then plane plates inoculated with the strains by diluting them two times gradually were aligned in a row. Minimum inhibition concentration (MIC, μg/ml) for the representative compounds of the present invention, Linezolid (LZD) and vancomycin (VAN) were decided through visual observation, and the results are shown in the following tables 2 and 3.

The test system of the next test is S. epidermidis C2235. It is filed as cell-based. The settings on record: S. epidermidis C2235; Agar Dilution method, Mueller Hinton Agar, 18 hours at 37° C. Here is the method: as §1, §2
The test system of the next test is E. faecium C6301. In kind it is cell-based. The settings on record: E. faecium C6301; Agar Dilution method, Mueller Hinton Agar, 18 hours at 37° C. Here is the method: as §1, §2
Another test deals with S. epidermidis ATCC12228. It is filed as cell-based. To be noted: S. epidermidis ATCC12228; Agar Dilution method, Mueller Hinton Agar, 18 hours at 37° C. Here is the method: as §1, §2
The test system of another test is E. faecalis C6288. In kind it is cell-based. The settings on record: E. faecalis C6288; Agar Dilution method, Mueller Hinton Agar, 18 hours at 37° C. Here is the method:
as §1, §2

For a further test, the system named is S. epidermidis C2230. In kind it is cell-based. The settings on record: S. epidermidis C2230; Agar Dilution method, Mueller Hinton Agar, 18 hours at 37° C. Here is the method: as §1, §2
The test system of a further test is S. pyogenes C6012. In kind it is cell-based. To be noted: S. pyogenes C6012; Agar Dilution method, Mueller Hinton Agar, 18 hours at 37° C. Here is the method:
as §1, §2

The next test concerns E. faecalis C6291. In kind it is cell-based. To be noted: E. faecalis C6291; Agar Dilution method, Mueller Hinton Agar, 18 hours at 37° C. Here is the method:
as §1, §2

The test system of a further test is S. aureus ATCC 29213. In kind it is cell-based. The settings on record: Agar Dilution method, Mueller Hinton Agar, 18 hours at 37° C. Here is the method: as §1, §2
The subject of a further test is E. faecium C2252. In kind it is cell-based. The settings on record: E. faecium C2252; Agar Dilution method, Mueller Hinton Agar, 18 hours at 37° C. Here is the method: as §1, §2
The test system of another test is S. pyogenes ATCC8668. It is filed as cell-based. To be noted: S. pyogenes ATCC8668; Agar Dilution method, Mueller Hinton Agar, 18 hours at 37° C. Here is the method: as §1, §2
The subject of another test is E. faecalis ATCC29212. It is filed as cell-based. The settings on record: E. faecalis ATCC29212; Agar Dilution method, Mueller Hinton Agar, 18 hours at 37° C. Here is the method: as §1, §2
The subject of a further test is MSSA C7142. In kind it is cell-based, Staphylococcus aureus. To be noted: MSSA C7142; Agar Dilution method, Mueller Hinton Agar, 18 hours at 37° C. Here is the method:
as §1, §2

For another test, the system named is MSSA C2214. In kind it is cell-based, Staphylococcus aureus. The settings on record: MSSA C2214; Agar Dilution method, Mueller Hinton Agar, 18 hours at 37° C. Here is the method: as §1, §2
A further test has as its system CRSA C6043. It is filed as cell-based, Staphylococcus aureus. The settings on record: CRSA C6043; Agar Dilution method, Mueller Hinton Agar, 18 hours at 37° C. Here is the method:
as §1, §2

The next test deals with MRSA C6068. In kind it is cell-based, Staphylococcus aureus. The settings on record: MRSA C6068; Agar Dilution method, Mueller Hinton Agar, 18 hours at 37° C. Here is the method:
as §1, §2

A further test has as its system MRSA C5100. In kind it is cell-based, Staphylococcus aureus. The settings on record: MRSA C5100; Agar Dilution method, Mueller Hinton Agar, 18 hours at 37° C. Here is the method:
as §1, §2

The next test has as its system MRSA C2207. It is filed as cell-based, Staphylococcus aureus. The settings on record: MRSA C2207; Agar Dilution method, Mueller Hinton Agar, 18 hours at 37° C. Here is the method: as §1, §2
For the next test, the system named is CRSA C1062. In kind it is cell-based, Staphylococcus aureus. To be noted: CRSA C1062; Agar Dilution method, Mueller Hinton Agar, 18 hours at 37° C. Here is the method:
as §1, §2

Another test concerns VRE C6488. It is filed as cell-based, Enterococcus faecium. To be noted: VRE C6488; Agar Dilution method, Mueller Hinton Agar, 18 hours at 37° C. Here is the method: as §1, §2
A further test has as its system VRE C6487. In kind it is cell-based, Enterococcus faecium. To be noted: VRE C6487; Agar Dilution method, Mueller Hinton Agar, 18 hours at 37° C. Here is the method:
as §1, §2

Values after ≈ are worked out from the molar mass of the structure shown.

As for `CC(=O)C=C1CCN(c2ccc(N3C[C@H](CNC(C)=O)OC3=O)cc2F)CC1` [Compound 12, N-[[(5S)-3-[3-fluoro-4-(4-methylcarbonylmethylidene-piperidinyl)phenyl]-2-oxo-5-oxazolidinyl]methyl]acetamide], the “Minimum inhibition concentration (MIC)” value amounted to 0.2 µg/mL (≈ 0.514 µM) with S. pyogenes C6003; 8 µg/mL (≈ 20.5 µM) with S. epidermidis C2235; 8 µg/mL (≈ 20.5 µM) in the test with E. faecium C6301; 1 µg/mL (≈ 2.57 µM) in the test with S. epidermidis ATCC12228; 16 µg/mL (≈ 41.1 µM) in the test on E. faecalis C6288; 8 µg/mL (≈ 20.5 µM) with S. epidermidis C2230. In addition, the “Minimum inhibition concentration (MIC)” value in the test on S. pyogenes C6012 amounted to 16 µg/mL (≈ 41.1 µM); with E. faecalis C6291, 16 µg/mL (≈ 41.1 µM); in the test on S. aureus ATCC 29213, 8 µg/mL (≈ 20.5 µM); with E. faecium C2252, 8 µg/mL (≈ 20.5 µM); in the test on S. pyogenes ATCC8668 it was 8 µg/mL (≈ 20.5 µM); in the test with E. faecalis ATCC29212, 16 µg/mL (≈ 41.1 µM). In addition, the “Minimum inhibition concentration (MIC)” value stood at 16 µg/mL (≈ 41.1 µM) in the test on MSSA C7142; 16 µg/mL (≈ 41.1 µM) in the test on MSSA C2214; 16 µg/mL (≈ 41.1 µM) in the test with CRSA C6043; 16 µg/mL (≈ 41.1 µM) with MRSA C6068; 8 µg/mL (≈ 20.5 µM) with MRSA C5100; 8 µg/mL (≈ 20.5 µM) in the test with MRSA C2207. Besides, the “Minimum inhibition concentration (MIC)” value turned out to be 8 µg/mL (≈ 20.5 µM) with CRSA C1062, 8 µg/mL (≈ 20.5 µM) in the test with VRE C6488 and 2 µg/mL (≈ 5.14 µM) in the test with VRE C6487.
Consider `CCOC(=O)C(C)=C1CCN(c2ccc(N3C[C@H](CNC(C)=O)OC3=O)cc2F)CC1` [Compound 13, N-[[(5S)-3-[3-fluoro-4-(4-(1-ethoxycarbonylethylidene)-piperidinyl)phenyl]-2-oxo-5-oxazolidinyl]methyl]acetamide], for which the “Minimum inhibition concentration (MIC)” value in the test on S. pyogenes C6003 amounted to 4 µg/mL (≈ 9.23 µM); in the test with S. epidermidis C2235 it was 8 µg/mL (≈ 18.5 µM); in the test with E. faecium C6301, 8 µg/mL (≈ 18.5 µM); with S. epidermidis ATCC12228, 4 µg/mL (≈ 9.23 µM); with E. faecalis C6288 it was 16 µg/mL (≈ 36.9 µM); in the test with S. epidermidis C2230 it was 16 µg/mL (≈ 36.9 µM). The “Minimum inhibition concentration (MIC)” value in the test with S. pyogenes C6012 amounted to 16 µg/mL (≈ 36.9 µM); with E. faecalis C6291, 8 µg/mL (≈ 18.5 µM); in the test on S. aureus ATCC 29213, 16 µg/mL (≈ 36.9 µM); in the test with E. faecium C2252 it was 8 µg/mL (≈ 18.5 µM); with S. pyogenes ATCC8668 it was 8 µg/mL (≈ 18.5 µM); in the test on E. faecalis ATCC29212 it was 16 µg/mL (≈ 36.9 µM). Also, the “Minimum inhibition concentration (MIC)” value in the test on MSSA C7142 was determined as 8 µg/mL (≈ 18.5 µM); in the test with MSSA C2214, 16 µg/mL (≈ 36.9 µM); with CRSA C6043, 8 µg/mL (≈ 18.5 µM); in the test with MRSA C6068 it was 8 µg/mL (≈ 18.5 µM); in the test on MRSA C5100, 8 µg/mL (≈ 18.5 µM); in the test with MRSA C2207, 16 µg/mL (≈ 36.9 µM). Also, the entries for the “Minimum inhibition concentration (MIC)” value with CRSA C1062, in the test on VRE C6488 and in the test on VRE C6487 were 16 µg/mL (≈ 36.9 µM), 8 µg/mL (≈ 18.5 µM) and 1 µg/mL (≈ 2.31 µM), respectively.
On to `CC(=O)NC[C@H]1CN(c2ccc(N3CCC(=CC(=O)O)CC3)c(F)c2)C(=O)O1` [Compound 14, N-[[(5S)-3-[3-fluoro-4-(4-carboxymethylidenepiperidinyl)-phenyl]-2-oxo-5-oxazolidinyl]methyl]acetamide], for which the “Minimum inhibition concentration (MIC)” value in the test on S. pyogenes C6003 is 2 µg/mL (≈ 5.11 µM); with S. epidermidis C2235, 1 µg/mL (≈ 2.55 µM); with E. faecium C6301, 4 µg/mL (≈ 10.2 µM); in the test on S. epidermidis ATCC12228 it was 1 µg/mL (≈ 2.55 µM); in the test with E. faecalis C6288, 4 µg/mL (≈ 10.2 µM); in the test on S. epidermidis C2230, 4 µg/mL (≈ 10.2 µM). In addition, the “Minimum inhibition concentration (MIC)” value with S. pyogenes C6012 amounted to 8 µg/mL (≈ 20.4 µM); in the test on E. faecalis C6291 it was 8 µg/mL (≈ 20.4 µM); with S. aureus ATCC 29213, 8 µg/mL (≈ 20.4 µM); in the test on E. faecium C2252 it was 8 µg/mL (≈ 20.4 µM); with S. pyogenes ATCC8668, 4 µg/mL (≈ 10.2 µM); in the test with E. faecalis ATCC29212, 8 µg/mL (≈ 20.4 µM). The “Minimum inhibition concentration (MIC)” value with MSSA C7142 is 8 µg/mL (≈ 20.4 µM); with MSSA C2214, 8 µg/mL (≈ 20.4 µM); with CRSA C6043, 8 µg/mL (≈ 20.4 µM); in the test on MRSA C6068, 4 µg/mL (≈ 10.2 µM); in the test with MRSA C5100, 4 µg/mL (≈ 10.2 µM); in the test on MRSA C2207, 8 µg/mL (≈ 20.4 µM). The “Minimum inhibition concentration (MIC)” value in the test on CRSA C1062 turned out to be 16 µg/mL (≈ 40.9 µM); in the test on VRE C6488, 8 µg/mL (≈ 20.4 µM); with VRE C6487 it was 1 µg/mL (≈ 2.55 µM).
On to `CCOC(=O)C(Cl)=C1CCN(c2ccc(N3C[C@H](CNC(C)=O)OC3=O)cc2F)CC1` [Compound 15, N-[[(5S)-3-[3-fluoro-4-((4-(1-ethoxycarbonyl-1-chloro)-methylidene)piperidinyl)phenyl]-2-oxo-5-oxazolidinyl]methyl]acetamide], for which the “Minimum inhibition concentration (MIC)” value was found to be 2 µg/mL (≈ 4.41 µM) in the test on S. pyogenes C6003; 4 µg/mL (≈ 8.81 µM) with S. epidermidis C2235; 2 µg/mL (≈ 4.41 µM) in the test with E. faecium C6301; 2 µg/mL (≈ 4.41 µM) in the test on S. epidermidis ATCC12228; 8 µg/mL (≈ 17.6 µM) in the test with E. faecalis C6288; 4 µg/mL (≈ 8.81 µM) in the test with S. epidermidis C2230. Besides, the “Minimum inhibition concentration (MIC)” value was 8 µg/mL (≈ 17.6 µM) in the test on S. pyogenes C6012; 4 µg/mL (≈ 8.81 µM) with E. faecalis C6291; 32 µg/mL (≈ 70.5 µM) in the test on S. aureus ATCC 29213; 4 µg/mL (≈ 8.81 µM) in the test with E. faecium C2252; 2 µg/mL (≈ 4.41 µM) in the test on S. pyogenes ATCC8668; 8 µg/mL (≈ 17.6 µM) with E. faecalis ATCC29212. The “Minimum inhibition concentration (MIC)” value with MSSA C7142 is 8 µg/mL (≈ 17.6 µM); with MSSA C2214 it was 8 µg/mL (≈ 17.6 µM); in the test on CRSA C6043, 16 µg/mL (≈ 35.3 µM); in the test with MRSA C6068, 16 µg/mL (≈ 35.3 µM); in the test on MRSA C5100, 16 µg/mL (≈ 35.3 µM); in the test on MRSA C2207, 16 µg/mL (≈ 35.3 µM). The “Minimum inhibition concentration (MIC)” value in the test with CRSA C1062 turned out to be 16 µg/mL (≈ 35.3 µM); in the test with VRE C6488, 4 µg/mL (≈ 8.81 µM); in the test on VRE C6487, 2 µg/mL (≈ 4.41 µM).
